Patent US20150189884A1, “METHODS OF CONTROLLING INSECTS” (Syngenta Participations AG, priority 2012, published 2015)
Like-named read-outs stand apart in the source and are kept apart here.

Test system: Anthonomus grandis (Cotton Boll Weevil)
Experiment: Anthonomus grandis (Cotton Boll Weevil) test on sprayed cotton plants, mortality assessed
Type: in vivo
Details: 120 h, read-out: control (mortality assessed)
Method: Anthonomus grandis (Cotton Boll Weevil)
Cotton plants are treated (100 mL spray volume) and 10 adult weevils are added to each plant (2 replicates per concentration). 5 days after infestation the mortality is assessed. The following compounds were tested and gave at least 80% control at 50 ppm: B3, B4, C2, C3, C4, E1, E7
Compounds are tested according to the above method.

[1] = 50 ppm, cotton plants treated (100 mL spray volume), 10 adult weevils per plant, 5 days after infestation

Compound | mortality at 50 ppm [1] | mortality at 50 ppm
C[C@H](NC(=O)C1CC1)c1ccc(C2(C(F)(F)F)CN=C(c3cc(Cl)c(Cl)c(Cl)c3)C2)cc1 (stereo partly drawn) [Compound B3, N-[(1S)-1-[4-[5-(3,4,5-trichlorophenyl)-3-(trifluoromethyl)-2,4-dihydropyrrol-3-yl]phenyl]ethyl]cyclopropanecarboxamide] | ≥ 80% | 
C[C@H](NC(=O)C1CC1)c1ccc(N2CCC(c3cc(C(F)(F)F)cc(C(F)(F)F)c3)(C(F)(F)F)C2)cc1 (stereo partly drawn) [Compound B4, N-[(1S)-1-[4-[3-[3,5-bis(trifluoromethyl)phenyl]-3-(trifluoromethyl)pyrrolidin-1-yl]phenyl]ethyl]cyclopropanecarboxamide] | ≥ 80% | 
N#Cc1cc(C2=NCC(c3cc(Cl)c(Cl)c(Cl)c3)(C(F)(F)F)C2)ccc1-n1cncn1 (centres unmarked) [Compound C2, 2-(1,2,4-triazol-1-yl)-5-[3-(3,4,5-trichlorophenyl)-3-(trifluoromethyl)-2,4-dihydropyrrol-5-yl]benzonitrile] | ≥ 80% | 
N#Cc1cc(C2=NOC(c3cc(Cl)c(F)c(Cl)c3)(C(F)(F)F)C2)ccc1-n1cncn1 (centres unmarked) [Compound C3] |  | ≥ 80%
CCC(=O)NC1CCc2cc(C3=NOC(c4cc(Cl)cc(Cl)c4)(C(F)(F)F)C3)ccc21 (centres unmarked) [Compound E1] |  | ≥ 80%
